Literature values as cited in patent US6344218B1, “Skin deodorizing and santizing compositions” (The Procter & Gamble Company, priority 1998, dated 2002).
Structures can show the parent of a compound that is named as a salt.

| SMILES | solubility in water |
| --- | --- |
| O=[N+]([O-])C1(Br)COCOC1 [Bronidox L, 5-bromo-5-nitro-1,3-dioxane] | about 0.46% |
| ClC=CC[N+]12CN3CN(CN(C3)C1)C2.[Cl-] [Dowicil 200, 1-(3-Chlorallyl)-3,5,7-triaza-1-azoniaadamantane chloride] | freely soluble in water |
| OCc1ccccc1 [benzyl alcohol] | about 4% |
| CC(C)(O)C(Cl)(Cl)Cl [chlorobutanol, 1,1,1-Trichloro-2-methylpropan-2-ol] | about 0.8% |
| [H]/N=C(\N/C(=N/[H])NCCCCCCNC(=N)NC(=N)Nc1ccc(Cl)cc1)Nc1ccc(Cl)cc1 [diacetate salt, 1,1′-hexamethylene bis(5-(p-chlorophenyl)biguanide), reference compound] | about 1.8% |
| [H]/N=C(\N/C(=N/[H])NCCCCCCNC(=N)NC(=N)Nc1ccc(Cl)cc1)Nc1ccc(Cl)cc1 [digluconate salt, 1,1′-hexamethylene bis(5-(p-chlorophenyl)biguanide), reference compound] | about 70% |
| [Na+].[O-][n+]1ccccc1[S-] [sodium pyrithione] | about 50% |

Further lines, results first:

| solubility in water | SMILES |
| --- | --- |
| about 2.67% | OCCOc1ccccc1 [2-phenoxyethanol] |
| about 2% | OCCc1ccccc1 [2-phenylethanol] |
| about 25% | O=[N+]([O-])C(Br)(CO)CO [Bronopol, 2-bromo-2-nitropropane-1,3-diol] |
| more than 50% | CC1(C)C(=O)N(CO)C(=O)N1CO [DMDM hydantoin, 1,3-bis(hydroxymethyl)-5,5-dimethyl-2,4-imidazolidinedione] |
